Reference: ChEMBL document CHEMBL4765364, “Synthesis, antibacterial and antifungal activity of new 3-biphenyl-3H-Imidazo[1,2-a]azepin-1-ium bromides” (Eur J Med Chem, 2020)
In brackets after ≈: the same amount, converted by molar mass. Activity calls are given as the source filed them. The calls are words filed in the database; no cut-off is given here.

Key:
Candida albicans [1] = assay: Antifungal activity against Candida albicans ATCC 90028 at 32 ug/ml measured after 24 hrs by resazurin dye based assay; type: functional
Escherichia coli [2] = assay: Antibacterial activity against Escherichia coli ATCC 25922 at 32 ug/ml measured after 18 hrs; type: functional
Acinetobacter baumannii [3] = assay: Antibacterial activity against Acinetobacter baumannii ATCC 19606 at 32 ug/ml measured after 18 hrs; type: functional
Pseudomonas aeruginosa [4] = assay: Antibacterial activity against Pseudomonas aeruginosa ATCC 27853 at 32 ug/ml measured after 18 hrs; type: functional
Klebsiella pneumoniae [5] = assay: Antibacterial activity against Klebsiella pneumoniae ATCC 700603 at 32 ug/ml measured after 18 hrs; type: functional
Staphylococcus aureus [6] = assay: Antibacterial activity against methicillin resistant Staphylococcus aureus ATCC 43300 at 32 ug/ml measured after 18 hrs; type: functional
Cryptococcus neoformans [7] = assay: Antifungal activity against Cryptococcus neoformans ATCC 208821 at 32 ug/ml measured after 24 hrs by resazurin dye based assay; type: functional
[8] = Cytotoxicity against HEK293 cells measured after 20 hrs by resazurin dye based fluorescence assay; type: cell-based; details: human
Pseudomonas aeruginosa [9] = assay: Antibacterial activity against Pseudomonas aeruginosa ATCC 27853 measured after 18 hrs; type: functional
Escherichia coli [10] = assay: Antibacterial activity against Escherichia coli ATCC 25922 measured after 18 hrs; type: functional
Acinetobacter baumannii [11] = assay: Antibacterial activity against Acinetobacter baumannii ATCC 19606 measured after 18 hrs; type: functional; details: ATCC 19606 = CIP 70.34 = JCM 6841
Staphylococcus aureus [12] = assay: Antibacterial activity against methicillin resistant Staphylococcus aureus ATCC 43300 measured after 18 hrs; type: functional
Klebsiella pneumoniae [13] = assay: Antibacterial activity against Klebsiella pneumoniae ATCC 700603 measured after 18 hrs; type: functional
Cryptococcus neoformans [14] = assay: Antifungal activity against Cryptococcus neoformans ATCC 208821 measured after 24 hrs by resazurin dye based assay; type: functional
Candida albicans [15] = assay: Antifungal activity against Candida albicans ATCC 90028 measured after 24 hrs by resazurin dye based assay; type: functional
[16] = ATCC 19606 = CIP 70.34 = JCM 6841, dose 32.0 µg/ml

Molecule | CC50 at 20 h [8] [µg/mL] | Activity (Candida albicans [1]; dose 32 µg/ml) [%] | MIC (Pseudomonas aeruginosa [9]) [µg/mL] | MIC (Escherichia coli [10]) [µg/mL] | Activity (Escherichia coli [2]; dose 32 µg/ml) [%] | MIC (Acinetobacter baumannii [11]) [µg/mL] | Activity (Acinetobacter baumannii [3]; dose 32 µg/ml) [%] | MIC (Staphylococcus aureus [12]) [µg/mL] | MIC (Klebsiella pneumoniae [13]) [µg/mL] | Activity (Pseudomonas aeruginosa [4]; dose 32 µg/ml) [%] | Activity (Klebsiella pneumoniae [5]; dose 32 µg/ml) [%] | MIC (Cryptococcus neoformans [14]) [µg/mL] | MIC (Candida albicans [15]) [µg/mL] | Activity (Staphylococcus aureus [6]; dose 32 µg/ml) [%] | Activity (Cryptococcus neoformans [7]; dose 32 µg/ml) [%] | also measured
COc1ccc([N+]2=C3COCCN3C(O)(c3ccc(-c4ccccc4)cc3)C2)cc1 (stereo unspecified) | – | – | – | – | – | – | – | – | – | – | – | – | – | – | – | Activity (Candida albicans [1]; dose 32.0 µg/ml): inactive; Activity (Escherichia coli [2]; dose 32.0 µg/ml): inactive; Activity (Acinetobacter baumannii [3]; [16]): inactive; Activity (Pseudomonas aeruginosa [4]; dose 32.0 µg/ml): inactive; Activity (Klebsiella pneumoniae [5]; dose 32.0 µg/ml): inactive; Activity (Staphylococcus aureus [6]; dose 32.0 µg/ml): inactive; Activity (Cryptococcus neoformans [7]; dose 32.0 µg/ml): inactive
CC/C(=C(\c1ccccc1)c1ccc(OCCN(C)C)cc1)c1ccccc1 [TAMOXIFEN] | 9 (≈ 24.2 µM) | – | – | – | – | – | – | – | – | – | – | – | – | – | – | –
COc1ccc([N+]2=C3CCCCN3C(O)(c3ccc(-c4ccccc4)cc3)C2)cc1 (stereo unspecified) | – | – | – | – | – | – | – | – | – | – | – | – | – | – | – | Activity (Candida albicans [1]; dose 32.0 µg/ml): inactive; Activity (Escherichia coli [2]; dose 32.0 µg/ml): inactive; Activity (Acinetobacter baumannii [3]; [16]): inactive; Activity (Pseudomonas aeruginosa [4]; dose 32.0 µg/ml): inactive; Activity (Klebsiella pneumoniae [5]; dose 32.0 µg/ml): inactive; Activity (Staphylococcus aureus [6]; dose 32.0 µg/ml): inactive; Activity (Cryptococcus neoformans [7]; dose 32.0 µg/ml): inactive
COc1ccc([N+]2=C3CCCCCN3C(O)(c3ccc(-c4ccccc4)cc3)C2)c(OC)c1.[Br-] (stereo unspecified) | 2.4 | >80 | 32 | > 32 | >80 | > 32 | >80 | 8 | > 32 | >80 | >80 | 32 | > 32 | >80 | >80 | –
CCOc1ccc([N+]2=C3CCCCCN3C(O)(c3ccc(-c4ccccc4)cc3)C2)cc1.[Br-] (stereo unspecified) | 2.4 | >80 | > 32 | > 32 | >80 | > 32 | >80 | 16 | > 32 | >80 | >80 | 32 | > 32 | >80 | >80 | –
OC1(c2ccc(-c3ccccc3)cc2)C[N+](c2ccc(OC(F)F)cc2)=C2CCCCCN21.[Br-] (stereo unspecified) | 5.8 | >80 | > 32 | > 32 | >80 | > 32 | >80 | 16 | > 32 | >80 | >80 | > 32 | > 32 | >80 | >80 | –
OC(Cn1cncn1)(Cn1cncn1)c1ccc(F)cc1F [FLUCONAZOLE] | – | – | – | – | – | – | – | – | – | – | – | 8 (≈ 26.1 µM) | 0.125 (≈ 0.408 µM) | – | – | –
COc1ccc([N+]2=C3CCCCCN3C(O)(c3ccc(-c4ccccc4)cc3)C2)cc1.[Br-] (stereo unspecified) | 2.6 | >80 | > 32 | > 32 | >80 | > 32 | >80 | 16 | > 32 | >80 | >80 | 32 | > 32 | >80 | >80 | –
CCc1ccc([N+]2=C3CCCCCN3C(O)(c3ccc(-c4ccccc4)cc3)C2)cc1.[Br-] (stereo unspecified) | 2.2 | >80 | 32 | > 32 | >80 | > 32 | >80 | 8 | > 32 | >80 | >80 | 32 | > 32 | >80 | >80 | –
COc1ccccc1[N+]1=C2CCCCCN2C(O)(c2ccc(-c3ccccc3)cc2)C1.[Br-] (stereo unspecified) | 2.2 | >80 | > 32 | > 32 | >80 | > 32 | >80 | 16 | > 32 | >80 | >80 | 8 | 32 | >80 | >80 | –
OC1(c2ccc(-c3ccccc3)cc2)C[N+](c2ccc(Cl)cc2)=C2CCCCCN21.[Br-] (stereo unspecified) | 3.9 | >80 | 32 | > 32 | >80 | > 32 | >80 | 16 | > 32 | >80 | >80 | > 32 | > 32 | >80 | >80 | –
Cc1ccc(-[n+]2cc(-c3ccc(-c4ccccc4)cc3)n3c2CCCCC3)cc1.[Br-] | 2.1 | >80 | > 32 | > 32 | >80 | > 32 | >80 | 8 | > 32 | >80 | >80 | 16 | 8 | >80 | >80 | –
CCc1ccc(-[n+]2cc(-c3ccc(-c4ccccc4)cc3)n3c2CCCCC3)cc1.[Br-] | 1.4 | >80 | 32 | > 32 | >80 | > 32 | >80 | 4 | > 32 | >80 | >80 | 8 | 4 | >80 | >80 | –
Cc1ccc([N+]2=C3CCCCCN3C(O)(c3ccc(-c4ccccc4)cc3)C2)cc1.[Br-] (stereo unspecified) | 2.7 | >80 | > 32 | > 32 | >80 | > 32 | >80 | 16 | > 32 | >80 | >80 | > 32 | > 32 | >80 | >80 | –
OC1(c2ccc(-c3ccccc3)cc2)C[N+](c2ccc3c(c2)OCO3)=C2CCCCCN21.[Br-] (stereo unspecified) | 4.5 | >80 | > 32 | > 32 | >80 | > 32 | >80 | 32 | > 32 | >80 | >80 | > 32 | > 32 | >80 | >80 | –
CCOc1ccc(-[n+]2cc(-c3ccc(-c4ccccc4)cc3)n3c2CCCCC3)cc1.[Br-] | 1.7 | >80 | 32 | > 32 | >80 | > 32 | >80 | 4 | > 32 | >80 | >80 | 16 | 8 | >80 | >80 | –
OC1(c2ccc(-c3ccccc3)cc2)C[N+](c2ccccc2)=C2CCCCCN21.[Br-] (stereo unspecified) | 2.3 | >80 | > 32 | > 32 | >80 | > 32 | >80 | 32 | > 32 | >80 | >80 | > 32 | > 32 | >80 | >80 | –
OC1(c2ccc(-c3ccccc3)cc2)C[N+](c2ccc(Br)cc2)=C2CCCCCN21.[Br-] (stereo unspecified) | 6.1 | >80 | > 32 | > 32 | >80 | > 32 | >80 | > 32 | > 32 | >80 | >80 | > 32 | > 32 | >80 | >80 | –
COLISTIN | – | – | 0.25 | 0.125 | – | 0.25 | – | – | 0.25 | – | – | – | – | – | – | –
